Assay results published in patent US11926613B2, “Kinase inhibitors for the treatment of central and peripheral nervous system disorders” (UNIVERSITY OF MIAMI, priority 2017, dated 2024).
pEC50: −log10 of the molar value.

How the values were obtained:
[1] = tested on: neurons from hippocampi of E18 rat embryos; assay: Neurite growth length (% NTL) in cultured E18 rat hippocampal neurons, 9-point dose response, 48 hours; type: cell-based; conditions: Rattus norvegicus, Neuron, 48 h; for activity at 0.078 µM: 78 nM; for activity at 0.156 µM: 156 nM; for activity at 0.312 µM: 312 nM; for activity at 0.625 µM: 625 nM
Method in brief: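 Dissociated E18 rat hippocampal neurons at 1500 cells/well on PDL were exposed 48 h to 9 concentrations from 20 μM down to 0.078125 μM. After PFA fixation and βIII-tubulin/Hoechst staining, ArrayScan imaging traced neurites in at least 200–300 neurons per condition to give % NTL.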

Primary Neurons = assay: HCS neurite outgrowth assay (High Content Screening with Primary Neurons); type: cell-based; conditions: Primary neuron

SMILES | activity at 0.078 µM [1] [%] | activity at 0.156 µM [1] [%] | activity at 0.312 µM [1] [%] | activity at 0.625 µM [1] [%] | activity at 1.25 µM [1] [%] | activity at 2.5 µM [1] [%] | activity at 5 µM [1] [%] | activity at 10 µM [1] [%] | pEC50 (Primary Neurons) | activity at 20 µM [1] [%]
Cc1cccc(C(=O)c2ccc(C(=O)N[C@@H]3CNC[C@H]3NC(=O)c3ccnc(N)n3)cc2)c1O [Example A74, 2-amino-N-[(3R,4R)-4-[4-(2-hydroxy-3-methylbenzoyl)benzamido]pyrrolidin-3-yl]pyrimidine-4-carboxamide] | 101 | 103 | 103 | 106 | 105 | 119 | 121 | 137 | 5.35 | 
Cc1cccc(C(=O)c2ccc(C(=O)N[C@@H]3CNC[C@H]3NC(=O)c3ccncc3)cc2)c1O [Example A75, N-[(3R,4R)-4-[4-(2-hydroxy-3-methylbenzoyl)benzamido]pyrrolidin-3-yl]pyridine-4-carboxamide] | 97.1 | 93.7 | 105 | 106 | 116 | 119 | 119 | 146 | 5.18 | 140
COc1ccc(O)c(C(=O)c2ccc(C(=O)N[C@@H]3CNC[C@H]3NC(=O)c3ccnc(N)n3)cc2)c1 [Example A76, 2-amino-N-[(3R,4R)-4-[4-(2-hydroxy-5-methoxybenzoyl)benzamido]pyrrolidin-3-yl]pyrimidine-4-carboxamide] | 131 | 121 | 140 | 156 | 169 | 207 | 317 | 558 | 5.08 | 692
COc1ccc(O)c(C(=O)c2ccc(C(=O)N[C@@H]3CNC[C@H]3NC(=O)c3ccncc3)cc2)c1 [Example A77, N-[(3R,4R)-4-[4-(2-hydroxy-5-methoxybenzoyl)benzamido]pyrrolidin-3-yl]pyridine-4-carboxamide] | 118 | 125 | 133 | 144 | 159 | 187 | 263 | 469 | 4.98 | 653
Cc1ccc(O)c(C(=O)c2ccc(C(=O)N[C@@H]3CNC[C@H]3NC(=O)c3ccncc3)cc2)c1 [Example A78, N-[(3R,4R)-4-[4-(2-hydroxy-5-methylbenzoyl)benzamido]pyrrolidin-3-yl]pyridine-4-carboxamide] | 122 | 121 | 133 | 143 | 152 | 176 | 256 | 410 | 5.11 | 503
O=C(N[C@@H]1CNC[C@H]1NC(=O)c1ccc(C(=O)c2ccc(Cl)cc2O)cc1)c1ccncc1 [Example A79, N-[(3R,4R)-4-[4-(4-chloro-2-hydroxybenzoyl)benzamido]pyrrolidin-3-yl]pyridine-4-carboxamide] | 116 | 109 | 117 | 118 | 111 | 116 | 112 | 107 | < 4.70 | 94.7
Cc1ccc(C(=O)c2ccc(C(=O)N[C@@H]3CNC[C@H]3NC(=O)c3ccnc(N)n3)cc2)c(O)c1 [Example A80, 2-amino-N-[(3R,4R)-4-[4-(2-hydroxy-4-methylbenzoyl)benzamido]pyrrolidin-3-yl]pyrimidine-4-carboxamide] | 125 | 124 | 141 | 158 | 178 | 221 | 203 | 160 | 6.27 | 155
Cc1ccc(C(=O)c2ccc(C(=O)N[C@@H]3CNC[C@H]3NC(=O)c3ccncc3)cc2)c(O)c1 [Example A81, N-[(3R,4R)-4-[4-(2-hydroxy-4-methylbenzoyl)benzamido]pyrrolidin-3-yl]pyridine-4-carboxamide] | 124 | 120 | 127 | 128 | 128 | 125 | 130 | 113 | 5.28 | 116
COc1ccc(C(=O)c2ccc(C(=O)N[C@@H]3CNC[C@H]3NC(=O)c3ccnc(N)n3)cc2)c(O)c1 [Example A82, 2-amino-N-[(3R,4R)-4-[4-(2-hydroxy-4-methoxybenzoyl)benzamido]pyrrolidin-3-yl]pyrimidine-4-carboxamide] | 107 | 115 | 117 | 124 | 122 | 120 | 120 | 131 | 6.81 | 117
COc1ccc(C(=O)c2ccc(C(=O)N[C@@H]3CNC[C@H]3NC(=O)c3ccncc3)cc2)c(O)c1 [Example A83, N-[(3R,4R)-4-[4-(2-hydroxy-4-methoxybenzoyl)benzamido]pyrrolidin-3-yl]pyridine-4-carboxamide] | 106 | 105 | 110 | 118 | 124 | 127 | 127 | 123 | 6.31 | 117
Nc1nccc(C(=O)N[C@@H]2CNC[C@H]2NC(=O)c2ccc(C(=O)c3cc(Cl)ccc3O)cc2)n1 [Example A84, 2-amino-N-[(3R,4R)-4-[4-(5-chloro-2-hydroxybenzoyl)benzamido]pyrrolidin-3-yl]pyrimidine-4-carboxamide] | 115 | 118 | 125 | 139 | 153 | 165 | 270 | 492 | 5.16 | 564
O=C(N[C@@H]1CNC[C@H]1NC(=O)c1ccc(C(=O)c2cc(Cl)ccc2O)cc1)c1ccncc1 [Example A85, N-[(3R,4R)-4-[4-(5-chloro-2-hydroxybenzoyl)benzamido]pyrrolidin-3-yl]pyridine-4-carboxamide] | 134 | 144 | 140 | 153 | 177 | 219 | 376 | 534 | 5.42 | 426
O=C(N[C@@H]1CNC[C@H]1NC(=O)c1ccc(C(=O)c2ccccc2O)cc1)c1ccncc1 [Example A86, N-[(3R,4R)-4-[4-(2-hydroxybenzoyl)benzamido]pyrrolidin-3-yl]pyridine-4-carboxamide] | 124 | 135 | 126 | 134 | 136 | 158 | 185 | 271 | 4.92 | 379
